Earlier results in patent US20030176652A1, “Human and mouse beta-defensins, antimicrobial peptides” (priority 2001, published 2003).
Several values for one entry are separate records, joined by “and”; a condition that tells them apart may be missing. Equal entries are not always repeated. Where two headings read alike, the source gives them in different places. Where no end group is shown, it is not given here.

How the values were obtained:
Haemophilus influenzae = system: Haemophilus influenzae; set-up: MIC50 / MIC90: unit not given beside the values
[1] = system: Staphylococcus epidermidis; set-up: unit not given beside the values
Neisseria gonorrhoeae = system: Neisseria gonorrhoeae; set-up: MIC90: unit not given beside the values
Streptococcus spp. = system: Streptococcus spp.; set-up: unit not given beside the values
Nocardia asteroides = system: Nocardia asteroides; set-up: MIC50 / MIC90: unit not given beside the values
Haemophilus ducreyi = system: Haemophilus ducreyi; set-up: unit not given beside the values
[2] = system: Branhamella (Moraxella) catarrhalis; settings: Branhamella (Moraxella) catarrhalis (β-lactamase producer)
Bacteroides fragilis = system: Bacteroides fragilis; set-up: MIC50 / MIC90: unit not given beside the values
[3] = system: Staphylococcus haemolyticus
Campylobacter pylori = system: Campylobacter pylori; set-up: MIC50: unit not given beside the values
[4] = system: Bordetella bronchiseptica; set-up: MIC50 / MIC90: unit not given beside the values
Campylobacter jejuni = system: Campylobacter jejuni; set-up: MIC90: unit not given beside the values
Staphylococcus aureus [5] = system: Staphylococcus aureus; set-up: MIC50 / MIC90: unit not given beside the values
Staphylococcus hominis = system: Staphylococcus hominis; set-up: unit not given beside the values
Listeria monocytogenes = system: Listeria monocytogenes; set-up: unit not given beside the values
[6] = system: Haemophilus parainfluenzae; set-up: MIC50 / MIC90: unit not given beside the values
Enterococcus spp. = system: Enterococcus spp.; set-up: MIC50 / MIC90: unit not given beside the values
Neisseria meningitidis = system: Neisseria meningitidis; set-up: MIC50 / MIC90: unit not given beside the values
Bacillus spp. = system: Bacillus spp.; set-up: MIC90: unit not given beside the values
Streptococcus pyogenes = system: Streptococcus pyogenes; set-up: unit not given beside the values
Streptococcus agalactiae = system: Streptococcus agalactiae; set-up: MIC50 / MIC90: unit not given beside the values
Mycoplasma hominis = system: Mycoplasma hominis; set-up: MIC50 / MIC90: unit not given beside the values
[7] = system: cells expressing the human CCR6
Staphylococcus aureus [8] = settings: physiological salt concentrations
[9] = Haemophilus influenzae (non β-lactamase producer)
[10] = Haemophilus influenzae (penicillin resistant)
[11] = Haemophilus influenzae (penicillin susceptible)
[12] = Haemophilus influenzae (β-lactamase producer)
[13] = Neisseria gonorrhoeae (non β-lactamase producer)
[14] = Staphylococcus aureus (methicillin resistant)
[15] = Staphylococcus aureus (penicillin resistant)
[16] = Staphylococcus aureus (penicillin susceptible)

With `CC[C@H]1OC(=O)[C@H](C)[C@@H](O[C@H]2C[C@@](C)(OC)[C@@H](O)[C@H](C)O2)[C@H](C)[C@@H](O[C@@H]2O[C@H](C)C[C@H](N(C)C)[C@H]2O)[C@](C)(O)C[C@@H](C)C(=O)[C@H](C)[C@@H](O)[C@]1(C)O` [ERYTHROMYCIN, erythromycin] as the compound, how does the MIC50 (Haemophilus influenzae; Haemophilus influenzae) read?
Its MIC50 is 2 and 1.

What about the MIC90 (Haemophilus influenzae; Haemophilus influenzae) of the same compound?
The MIC90 was 2 and 4.

And the Range (Haemophilus influenzae; Haemophilus influenzae)?
The Range was 0.5-8 and 0.25-16.

What about the MIC50 (Haemophilus influenzae; [9]) of the same compound?
The MIC50 was 2 and 4.

And the MIC90 (Haemophilus influenzae; [9])?
The MIC90 was 4 and 8.

And the Range (Haemophilus influenzae; [9])?
Its Range is 0.06-8.

What about the MIC50 (Haemophilus influenzae; [10]) of the same compound?
Its MIC50 is 8.

And the MIC90 (Haemophilus influenzae; [10])?
The MIC90 was 16.

What about the Range (Haemophilus influenzae; [10]) of the same compound?
The Range was 8-16.

What about the MIC50 (Haemophilus influenzae; [11]) of the same compound?
Its MIC50 is 8.

And the MIC90 (Haemophilus influenzae; [11])?
Its MIC90 is 16.

And the Range (Haemophilus influenzae; [11])?
Its Range is 0.25-16.

What about the MIC50 (Haemophilus influenzae; [12]) of the same compound?
The MIC50 was 4 and 2.

What about the MIC90 (Haemophilus influenzae; [12]) of the same compound?
Its MIC90 is 8 and 4.

What about the MIC50 [1] of the same compound?
The MIC50 was 64.

What about the MIC90 [1] of the same compound?
Its MIC90 is 64.

And the MIC90 (Neisseria gonorrhoeae; Neisseria gonorrhoeae)?
Its MIC90 is 1.

What about the Range (Neisseria gonorrhoeae; Neisseria gonorrhoeae) of the same compound?
The Range was 0.0075-8.

And the MIC90 (Neisseria gonorrhoeae; [13])?
Its MIC90 is 2 and 1.

And the Range (Neisseria gonorrhoeae; [13])?
The Range was 0.015-4 and 0.03-2.

And the MIC90 (Neisseria gonorrhoeae; Neisseria gonorrhoeae (β-lactamase producer))?
Its MIC90 is 2 and 4.

What about the MIC50 (Streptococcus spp.) of the same compound?
Its MIC50 is 0.03.

And the MIC50 (Nocardia asteroides)?
Its MIC50 is 8.

And the MIC90 (Nocardia asteroides)?
The MIC90 was 8.

And the Range (Nocardia asteroides)?
Its Range is 0.25-8.

And the MIC50 (Haemophilus ducreyi)?
The MIC50 was 0.004.

And the MIC90 (Haemophilus ducreyi)?
Its MIC90 is 0.06.

And the MIC50 (Enterococcus faecium)?
Its MIC50 is 1.

And the MIC90 (Enterococcus faecium)?
Its MIC90 is 64.

What about the Range (Enterococcus faecium) of the same compound?
The Range was 0.06-64.

And the Range [2]?
Its Range is 0.06-1 and 0.03-0.25 and 0.06-8.

What about the MIC50 (Bacteroides fragilis) of the same compound?
The MIC50 was 1.

And the MIC90 (Bacteroides fragilis)?
Its MIC90 is 8.

What about the Range (Bacteroides fragilis) of the same compound?
Its Range is 0.25-16.

What about the MIC50 [3] of the same compound?
The MIC50 was 64.

And the MIC90 [3]?
Its MIC90 is 64.

What about the MIC50 (Borrelia burgdorferi) of the same compound?
Its MIC50 is 0.03.

What about the MIC90 (Borrelia burgdorferi) of the same compound?
Its MIC90 is 0.06.

And the MIC50 (Campylobacter pylori)?
The MIC50 was 0.5.

And the Range (Campylobacter pylori)?
Its Range is 0.25-16.

And the MIC50 [4]?
Its MIC50 is 8.

And the MIC90 [4]?
Its MIC90 is 32.

And the Range [4]?
The Range was 4-32.

What about the MIC90 (Campylobacter jejuni) of the same compound?
Its MIC90 is 4 and 2.

And the Range (Campylobacter jejuni)?
Its Range is 0.5-8.

What about the MIC50 (Staphylococcus aureus [5]; Staphylococcus aureus) of the same compound?
Its MIC50 is 0.5.

And the MIC50 (Staphylococcus aureus [5]; [14])?
The MIC50 was 64 and 32.

And the MIC90 (Staphylococcus aureus [5]; [14])?
The MIC90 was 64 and 32.

What about the MIC50 (Staphylococcus aureus [5]; Staphylococcus aureus (methicillin susceptible)) of the same compound?
The MIC50 was 0.5.

And the MIC90 (Staphylococcus aureus [5]; [15])?
Its MIC90 is 32.

And the Range (Staphylococcus aureus [5]; [15])?
Its Range is 0.25-32.

What about the MIC50 (Staphylococcus aureus [5]; [16]) of the same compound?
Its MIC50 is 0.5.

What about the MIC90 (Staphylococcus aureus [5]; [16]) of the same compound?
Its MIC90 is 0.5.

What about the Range (Staphylococcus aureus [5]; [16]) of the same compound?
The Range was 0.06-32.

What about the MIC50 (Staphylococcus hominis) of the same compound?
Its MIC50 is 64.

And the MIC90 (Staphylococcus hominis)?
The MIC90 was 64.

And the MIC50 (Corynebacterium JK)?
The MIC50 was 2.

And the MIC90 (Corynebacterium JK)?
Its MIC90 is 64.

And the MIC90 (Ureaplasma urealyticum)?
The MIC90 was 32.

And the MIC50 (Listeria monocytogenes)?
The MIC50 was 0.5.

What about the MIC50 [6] of the same compound?
Its MIC50 is 2.

What about the MIC90 [6] of the same compound?
Its MIC90 is 4.

What about the Range [6] of the same compound?
Its Range is 0.5-8.

And the MIC50 (Enterococcus spp.)?
Its MIC50 is 2.

And the MIC90 (Enterococcus spp.)?
Its MIC90 is 32.

And the Range (Enterococcus spp.)?
Its Range is 0.06-32.

What about the MIC50 (Streptococcus pneumoniae) of the same compound?
The MIC50 was 0.06 and 0.03.

And the MIC90 (Streptococcus pneumoniae)?
The MIC90 was 0.03 and 0.06.

And the Range (Streptococcus pneumoniae)?
Its Range is 0.03-0.25 and 0.015-0.06 and 0.015-0.25.

What about the MIC50 (Neisseria meningitidis) of the same compound?
The MIC50 was 1.

And the MIC90 (Neisseria meningitidis)?
The MIC90 was 8.

And the Range (Neisseria meningitidis)?
Its Range is 0.5-8.

What about the MIC90 (Bacillus spp.) of the same compound?
The MIC90 was 2.

And the Range (Bacillus spp.)?
Its Range is 0.03-2.

And the MIC50 (Streptococcus pyogenes)?
The MIC50 was 0.06 and 0.03.

And the MIC50 (Streptococcus agalactiae)?
The MIC50 was 0.03.

And the MIC90 (Streptococcus agalactiae)?
Its MIC90 is 0.03.

And the Range (Streptococcus agalactiae)?
The Range was 0.03-0.25 and 0.015-0.06.

Which MIC50 (Staphylococcus aureus [5]; Staphylococcus aureus) does the source give for `CCC[C@@H]1C[C@@H](C(=O)N[C@@H]([C@H]2O[C@H](SC)[C@H](O)[C@@H](O)[C@H]2O)[C@@H](C)O)N(C)C1` [LINCOMYCIN, lincomycin] here?
The MIC50 was 1.

What about the MIC90 (Staphylococcus aureus [5]; Staphylococcus aureus) of the same compound?
The MIC90 was 1.

What about the Range (Staphylococcus aureus [5]; Staphylococcus aureus) of the same compound?
The Range was 0.5-512.

What about the MIC50 (Ureaplasma urealyticum) of the same compound?
The MIC50 was 128.

What about the MIC90 (Ureaplasma urealyticum) of the same compound?
The MIC90 was 128.

And the Range (Ureaplasma urealyticum)?
Its Range is 64-128.

And the MIC50 (Mycoplasma hominis)?
The MIC50 was 2.

And the MIC90 (Mycoplasma hominis)?
Its MIC90 is 4.

And the Range (Mycoplasma hominis)?
Its Range is 0.5-16.

And the MIC50 (Mycoplasma pneumoniae)?
The MIC50 was 8.

And the MIC90 (Mycoplasma pneumoniae)?
Its MIC90 is 32.

And the Range (Mycoplasma pneumoniae)?
Its Range is 2-32.

For “CCL20: the only reported chemokine ligand for CCR6”, which “chemokine activity relative to HBD-1 and HBD-2” value ([7]; greater than that of HBD-1 and HBD-2) is on record?
Its value is “approximately 10 fold”.

With “DEFB3: protein encoded by the known human β-defensin gene DEFB3 (GIINTLQKYYCRVRGGRCAVLSCLPKEEQIGKCSTRGRKCCRRKK; not fully specified (bridges); cysteine pairing not given here; UniProt P81534 23-67, looked up)” as the compound, how does the “salt sensitivity of bactericidal activity against Staphylococcus aureus” value (Staphylococcus aureus [8]) read?
The value was “not salt-sensitive”.

Which “chemotaxis of cells expressing the human CCR6” value [7] does the source give for “HBD-1: known human β-defensin peptide, product of DEFB1 (DHYNCVSSGGQCLYSACPIFTKIQGTCYRGKAKCCK; not fully specified (bridges); cysteine pairing not given here; UniProt P60022 33-68, looked up)” here?
Its value is “selectively chemotactic”.

For “HBD-2: HBD-2 protein encoded by the DEFB2 gene (GIGDPVTCLKSGAICHPVFCPRRYKQIGTCGLPGTKCCKKP; UniProt O15263 24-64, looked up)”, which “chemotaxis of cells expressing the human CCR6” value [7] is on record?
The value was “selectively chemotactic”.

What about the “histamine release from mast cells” value (mast cells) of the same compound?
The value was “stimulates mast cells to release histamine”.
